Results from patent USRE42890E1, “Furazanobenzimidazoles” (Basilea Pharmaceutica AG, priority 2003, dated 2011).
Where two headings read alike, the source gives them in different places.

Assays:
[1] = system: Jurkat; test: MTS proliferation assay, Jurkat; assay type: cell-based, human; conditions: 72 h incubation, read-out: MTS proliferation assay IC 50 Jurkat
Summary of the method: (§1)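 A 72 h exposure to compound (final 0.3–10 μM, four levels) was followed by 3 h MTS incubation and an A492 read.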

[2] = system: Jily; test: MTS proliferation assay, Jily; assay type: cell-based; conditions: 72 h incubation, read-out: MTS proliferation assay IC 50 Jily
Summary of the method: (§2)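 Proliferation is followed by MTS conversion, measured as absorbance at 492 nm. Cells are exposed for 72 h to four fixed compound concentrations (10 μM down to 0.3 μM) under 37° C, 7.5% CO2 culture conditions.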

[3] = system: HT1080; test: MTS proliferation assay, HT1080; assay type: cell-based, human; conditions: HT1080, 72 h incubation, read-out: MTS proliferation assay IC 50 HT1080
Summary of the method: as §1

[4] = system: HeLa; test: MTS proliferation assay, HeLa; assay type: cell-based, human; conditions: 72 h incubation, read-out: MTS proliferation assay IC 50 HeLa
Summary of the method: as §1

[5] = system: MRC5; test: MTS proliferation assay, MRC5; assay type: cell-based; conditions: MRC5, 72 h incubation, read-out: MTS proliferation assay IC 50 MRC5
Summary of the method: as §2

[6] = system: Jurkat; test: PI staining for cell cycle distribution, Jurkat; assay type: cell-based, human; design: key: 0: no effect; 1: weak effect; 2: strong effect; conditions: Jurkat 3 μM, 24 h
Method: (§3) Cell lines are cultured in RPMI-1640 tissue culture medium containing either 5% or 10% fetal calf serum, 0.05 mM 2-mercaptoethanol, 2 mM glutamine and penicillin/streptomycin 50 μg/ml (complete medium) (Sigma, Buchs, Switzerland). General growth conditions are 37° C. and 7.5% CO2.
(§4) The following human cell lines (either EGFP transfected or not) are being used: HeLa (ATCC: CCL-2), KB (ATCC: CCL-17), MCF7 (ATCC: HTB-22), SK-BR-3 (ATCC: HTB-30), SK-Mel 1 (ATCC: HTB-67), SK-Mel 28 (ATCC: HTB-72), PC-3 (ATCC: CRL-1435), SW 480 (ATCC: CCL-228), NCl-H460 (ATCC: HTB-177), NCl-H1792 (ATCC: CRL-5895), HT1080 (ATCC: CCL-21), Jurkat (ATCC: TIB-152), Ramos (ATCC: CRL-1596), Raji (ATCC: CCL-86), H9 (ATCC: HTB-176), Hut78 (ATCC: TIB-161), K562 (ATCC: CCL 243), HL-60 (ATCC: CCL 240), U-87MG (ATCC: HTB-14), HepG2 (ATCC: HB-8065), U-2 OS (ATCC: HTB-96), Saos-2 (ATCC: HTB-85), U937 (ATCC: CRL 1593), Hs 578T (ATCC: HTB 126), HBL-100 (ATCC: HTB 124), Molt-4 (ATCC: CRL 1582).
(§5) 1-2*10^5 cells are seeded into 24 well tissue culture plates and incubated for 24 h prior to compound addition. Compounds are added for 24 h in a final concentration of 3 μM or 10 μM. Adherent cells are harvested by trypsinization. The cell suspensions are fixed by adding 2 parts ice cold ethanol 100% while vortexing. Then the samples are stored for >2 h at −20° C. Subsequently the cells are washed with PBS once and resuspended in 250 μl PBS containing 50 μg/ml PI (Calbiochem # 537059), then the samples are incubated at 37° C. for 30 minutes and subsequently analyzed on a FACSCalibur™ monitoring linear PI fluorescence activity on FL2. The readout allows the detection of a possible direct or indirect influence of the tested compounds on the cell cycle. The following events can occur: a) Generation of a subG1 peak indicative for DNA fragmentation, b) increase of the cell population arrested in G2M phase. Both events are scored by 1 for weak and 2 for strong occurrence. 0 indicates no occurrence at all.

[7] = system: HeLa; test: PI staining for cell cycle distribution, HeLa; assay type: cell-based, human; design: key: 0: no effect; 1: weak effect; 2: strong effect; conditions: HeLa 10 μM, 24 h
Method: as §3, §4, §5

[8] = system: adherent cells or suspension cells; test: Hoechst 33342 nuclear staining (fraction of apoptotic nuclei); assay type: cell-based; design: key: 0 relating to no activity; 1 relating to weak activity comprising less than 70% of the cells; score 2 relating to strong activity comprising more than 70% of the cells
[9] = cell population arrested in G2M phase
[10] = subG1 peak indicative for DNA fragmentation

Compound	IC50 [2]	Hoechst 33342 nuclear staining score ([8]; H460, conc 0.01 μm)	Hoechst 33342 nuclear staining score ([8]; H460, conc 0.1 μm)	Hoechst 33342 nuclear staining score ([8]; H460, conc 1 μm)	Hoechst 33342 nuclear staining score ([8]; HeLa, conc 0.01 μm)	Hoechst 33342 nuclear staining score ([8]; HeLa, conc 0.1 μm)	Hoechst 33342 nuclear staining score ([8]; HeLa, conc 1 μm)	Hoechst 33342 nuclear staining score ([8]; Jily, conc 0.01 μm)	Hoechst 33342 nuclear staining score ([8]; Jily, conc 0.1 μm)	Hoechst 33342 nuclear staining score ([8]; Jily, conc 1 μm)	Hoechst 33342 nuclear staining score ([8]; Jurkat, conc 0.01 μm)	Hoechst 33342 nuclear staining score ([8]; Jurkat, conc 0.1 μm)	Hoechst 33342 nuclear staining score ([8]; Jurkat, conc 1 μm)	Hoechst 33342 nuclear staining score ([8]; MRC5, conc 0.01 μm)	Hoechst 33342 nuclear staining score ([8]; MRC5, conc 0.1 μm)	Hoechst 33342 nuclear staining score ([8]; MRC5, conc 1 μm)	Hoechst 33342 nuclear staining score ([8]; PBLs, conc 0.01 μm)	Hoechst 33342 nuclear staining score ([8]; PBLs, conc 0.1 μm)	Hoechst 33342 nuclear staining score ([8]; PBLs, conc 1 μm)	also measured
Nc1nonc1-c1nc2ccccc2n1CC(=O)c1ccc(Cl)cc1 [Example 16]	10 to 100 nM	0	2 (score 2 relating to strong activity comprising more than 70% of the cells)	2 (score 2 relating to strong activity comprising more than 70% of the cells)	0	2 (score 2 relating to strong activity comprising more than 70% of the cells)	2 (score 2 relating to strong activity comprising more than 70% of the cells)	0	2 (score 2 relating to strong activity comprising more than 70% of the cells)	2 (score 2 relating to strong activity comprising more than 70% of the cells)	0	2 (score 2 relating to strong activity comprising more than 70% of the cells)	2 (score 2 relating to strong activity comprising more than 70% of the cells)	0	2 (score 2 relating to strong activity comprising more than 70% of the cells)	2 (score 2 relating to strong activity comprising more than 70% of the cells)	0	0	0	IC50 [1]: 100 to 1000 nM; IC50 [3]: 10 to 100 nM; IC50 [4]: 100 to 1000 nM; IC50 [5]: 10 to 100 nM; PI staining for cell cycle distribution, G2M [6, 9]: 0; PI staining for cell cycle distribution, subG1 [6, 10]: 0; PI staining for cell cycle distribution, G2M [7, 9]: 2; PI staining for cell cycle distribution, subG1 [7, 10]: 0
Nc1nonc1-c1nc2ccccc2n1CC(=O)c1ccc(Cl)c([N+](=O)[O-])c1 [Example 66, 4-[1-(4-Chloro-3-nitrophenacyl)-1H-benzimidazol-2-yl]-furazan-3-ylamine]	100 to 1000 nM	0	0	2 (score 2 relating to strong activity comprising more than 70% of the cells)	0	0	2 (score 2 relating to strong activity comprising more than 70% of the cells)	0	0	2 (score 2 relating to strong activity comprising more than 70% of the cells)	0	1 (1 relating to weak activity comprising less than 70% of the cells)	2 (score 2 relating to strong activity comprising more than 70% of the cells)	0	0	1 (1 relating to weak activity comprising less than 70% of the cells)	0	0	0	IC50 ([1]; Homo sapiens): 10 to 100 nM; IC50 ([3]; Homo sapiens, HT-1080): 100 to 1000 nM; IC50 ([4]; Homo sapiens): 100 to 1000 nM; IC50 ([5]; Homo sapiens): 100 to 1000 nM; melting point: 198 to 200 °C
